In patent US12441695B2, “Substituted thiadiazinone dioxide and preparation method therefor, herbicidal composition, and application therefor” (Qingdao Kingagroot Chemical Compound Co., Ltd., priority 2019, dated 2025):

How the values were obtained:
[1] = tested on: major crops (wheat, corn, rice, soybean, cotton, oilseed rape, millet, sorghum); experiment: Experiment on weeding effect in post-emergence stage (crops); type: in vivo; details: 600 g/ha active ingredient plus water 450 kg/ha, 3 weeks after application; for corn plant damage level (growth control rate): crop corn; for soybean plant damage level (growth control rate): crop soybean; for rice plant damage level (growth control rate): crop rice
In short: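 Weed and crop seeds were sown in soil-filled pots, covered with 0.5–2 cm soil and grown in a greenhouse. Plants were sprayed 2–3 weeks after sowing using a spray tower, with compound dissolved in acetone plus Tween 80 and diluted in water. Effect was expressed as fresh-weight growth control rate.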

[2] = tested on: monocotyledonous and dicotyledonous weeds; experiment: Experiment on weeding effect in post-emergence stage (weeds); type: in vivo; details: 600 g/ha active ingredient plus water 450 kg/ha, 3 weeks after application, fresh weight control rate; for Amaranthus retroflexus activity level (growth control rate): fomesafen-resistant Amaranthus retroflexus
In short: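 Greenhouse pot-grown weeds and crops sprayed post-emergence 2–3 weeks after sowing with compound in acetone/Tween 80/water. Fresh-weight growth control scored after 3 weeks on a 0–5 scale (5: >85%, 0: <5%).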

| SMILES | corn plant damage level (growth control rate) [1] | soybean plant damage level (growth control rate) [1] | Amaranthus retroflexus activity level (growth control rate) [2] | Digitaria sanguinalis activity level (growth control rate) [2] | Echinochloa crus-galli activity level (growth control rate) [2] | Setaria viridis activity level (growth control rate) [2] | rice plant damage level (growth control rate) [1] |
| --- | --- | --- | --- | --- | --- | --- | --- |
| CCCS(=O)(=O)N1c2ccc(F)cc2C(=O)N(C(C)C)S1(=O)=O [Compound 196] | 0 (Level 0: growth control rate is less than 5%) | 0 (Level 0: growth control rate is less than 5%) | 5 (Level 5: growth control rate is above 85%) | 3 (Level 3: growth control rate is greater than or equal to 40% and less than 60%) | 5 (Level 5: growth control rate is above 85%) | 5 (Level 5: growth control rate is above 85%) |  |
| CC(C)OC(=O)N1c2c(F)cc(F)cc2C(=O)N(C(C)C)S1(=O)=O [Compound 219] | 1 (Level 1: growth control rate is greater than or equal to 500 and less than 200%) |  | 5 (Level 5: growth control rate is above 85%) | 3 (Level 3: growth control rate is greater than or equal to 40% and less than 60%) | 5 (Level 5: growth control rate is above 85%) | 5 (Level 5: growth control rate is above 85%) |  |
| CCOC(=O)OC(C)N1c2c(Cl)cc(F)cc2C(=O)N(C(C)C)S1(=O)=O (stereo not shown) [Compound 153] | 0 (Level 0: growth control rate is less than 5%) | 1 (Level 1: growth control rate is greater than or equal to 500 and less than 200%) | 5 (Level 5: growth control rate is above 85%) | 5 (Level 5: growth control rate is above 85%) | 5 (Level 5: growth control rate is above 85%) | 5 (Level 5: growth control rate is above 85%) | 0 (Level 0: growth control rate is less than 5%) |
| CCCCC(=O)N1c2ccc(F)cc2C(=O)N(C(C)C)S1(=O)=O [Compound 181] | 0 (Level 0: growth control rate is less than 5%) | 0 (Level 0: growth control rate is less than 5%) | 5 (Level 5: growth control rate is above 85%) |  |  |  | 0 (Level 0: growth control rate is less than 5%) |
| CCOC(=O)OC(C)N1c2c(F)cc(F)cc2C(=O)N(C(C)C)S1(=O)=O (stereo not shown) [Compound 151] | 1 (Level 1: growth control rate is greater than or equal to 500 and less than 200%) | 1 (Level 1: growth control rate is greater than or equal to 500 and less than 200%) | 5 (Level 5: growth control rate is above 85%) | 5 (Level 5: growth control rate is above 85%) | 5 (Level 5: growth control rate is above 85%) | 5 (Level 5: growth control rate is above 85%) | 1 (Level 1: growth control rate is greater than or equal to 500 and less than 200%) |
| CC(C)OC(=O)N1c2ccc(F)cc2C(=O)N(C(C)C)S1(=O)=O [Compound 63] | 0 (Level 0: growth control rate is less than 5%) | 0 (Level 0: growth control rate is less than 5%) | 5 (Level 5: growth control rate is above 85%) | 3 (Level 3: growth control rate is greater than or equal to 40% and less than 60%) | 4 (Level 4: growth control rate is greater than or equal to 60% and less than 85%) | 3 (Level 3: growth control rate is greater than or equal to 40% and less than 60%) | 0 (Level 0: growth control rate is less than 5%) |
| CC(C)N1C(=O)c2cc(Br)ccc2NS1(=O)=O [B, reference compound] | 0 (Level 0: growth control rate is less than 5%) | 0 (Level 0: growth control rate is less than 5%) | 1 (Level 1: growth control rate is greater than or equal to 500 and less than 200%) | 0 (Level 0: growth control rate is less than 5%) | 0 (Level 0: growth control rate is less than 5%) | 0 (Level 0: growth control rate is less than 5%) | 0 (Level 0: growth control rate is less than 5%) |
| CC(C)N1C(=O)c2cc(I)ccc2NS1(=O)=O [C, reference compound] | 0 (Level 0: growth control rate is less than 5%) | 0 (Level 0: growth control rate is less than 5%) | 0 (Level 0: growth control rate is less than 5%) | 0 (Level 0: growth control rate is less than 5%) | 0 (Level 0: growth control rate is less than 5%) | 0 (Level 0: growth control rate is less than 5%) | 0 (Level 0: growth control rate is less than 5%) |
| CC(=O)N1c2c(Br)cc(F)cc2C(=O)N(C(C)C)S1(=O)=O [Compound 154] | 0 (Level 0: growth control rate is less than 5%) | 1 (Level 1: growth control rate is greater than or equal to 500 and less than 200%) | 5 (Level 5: growth control rate is above 85%) | 5 (Level 5: growth control rate is above 85%) | 5 (Level 5: growth control rate is above 85%) | 5 (Level 5: growth control rate is above 85%) | 0 (Level 0: growth control rate is less than 5%) |
| CC(C)N1C(=O)c2cccnc2NS1(=O)=O [F, reference compound] | 1 (Level 1: growth control rate is greater than or equal to 500 and less than 200%) | 1 (Level 1: growth control rate is greater than or equal to 500 and less than 200%) | 2 (Level 2: growth control rate is greater than or equal to 20% and less than 40%) | 2 (Level 2: growth control rate is greater than or equal to 20% and less than 40%) | 2 (Level 2: growth control rate is greater than or equal to 20% and less than 40%) | 2 (Level 2: growth control rate is greater than or equal to 20% and less than 40%) | 1 (Level 1: growth control rate is greater than or equal to 500 and less than 200%) |
| O=C1c2c(cc(F)c(F)c2F)NS(=O)(=O)N1CCl [E, reference compound] | 1 (Level 1: growth control rate is greater than or equal to 500 and less than 200%) | 1 (Level 1: growth control rate is greater than or equal to 500 and less than 200%) | 2 (Level 2: growth control rate is greater than or equal to 20% and less than 40%) | 1 (Level 1: growth control rate is greater than or equal to 500 and less than 200%) | 1 (Level 1: growth control rate is greater than or equal to 500 and less than 200%) | 2 (Level 2: growth control rate is greater than or equal to 20% and less than 40%) | 1 (Level 1: growth control rate is greater than or equal to 500 and less than 200%) |
| CC(C)N1C(=O)c2cc(F)cc(F)c2N(C(C)OC(=O)OC2CCCCC2)S1(=O)=O (racemic) [Compound 227] | 0 (Level 0: growth control rate is less than 5%) | 1 (Level 1: growth control rate is greater than or equal to 500 and less than 200%) | 3 (Level 3: growth control rate is greater than or equal to 40% and less than 60%) |  |  |  | 1 (Level 1: growth control rate is greater than or equal to 500 and less than 200%) |
| CC(C)N1C(=O)c2cc(Cl)ccc2NS1(=O)=O [A, reference compound] | 0 (Level 0: growth control rate is less than 5%) | 0 (Level 0: growth control rate is less than 5%) | 1 (Level 1: growth control rate is greater than or equal to 500 and less than 200%) | 1 (Level 1: growth control rate is greater than or equal to 500 and less than 200%) | 1 (Level 1: growth control rate is greater than or equal to 500 and less than 200%) | 2 (Level 2: growth control rate is greater than or equal to 20% and less than 40%) | 0 (Level 0: growth control rate is less than 5%) |
